The text below walks through data of patent publication US5378848A, “Condensed imidazopyridine derivatives” (Shionogi & Co., Ltd., priority 1992, dated 1995).

Each structure is given as a SMILES string.

The test system of assay [1] is Pentylenetetrazole-Induced Convulsion. Nature of the assay: Antagonism of Pentylenetetrazole-Induced Convulsion (agonistic activity). The conditions noted are these: Mus musculus, iv; male mice; test compound i.v.; pentylenetetrazole 125 mg/kg s.c.; 2-hour observation; probit method; read-out: ED50 (dose required to prevent tonic convulsion and death in 50% of the animals). It is filed as in vivo. The procedure:
Agonistic activity was evaluated in this Experiment. Pentylenetetrazole was subcutaneously administered male mice (a group of 8-16 male mice was employed in each test) at a dose of 125 mg/kg immediately after intravenous injection of the test compound. The dose (ED50) required to prevent tonic convulsion and death in 50% of the animals during subsequent 2-hour observation period was calculated by the probit method.

The target in the next assay is Benzodiazepine Receptor. Nature of the assay: Test on Binding to Benzodiazepine Receptor (inhibition of specific binding of tritium-labeled diazepam). Set-up: species or system male Wistar rats. The following applies: rat cerebral cortex; 2 nM tritium-labeled diazepam; 0° C., 60 minutes; Ki=IC50÷(1+L/Kd). As for the experimental part:
This test was carried out modifying partially a method of Moehler & Okada, Science, 198, 849-851 (1977). Receptor preparation was provided from the cerebral cortex of male Wistar rats (11-13 weeks age). Inhibitory action of the test compound on the specific binding of tritium-labeled diazepam to the receptor was evaluated as follows: 2 nM tritium-labeled diazepam and an aqueous solution of the test compound in 5 or 6 different concentrations were incubated with the receptor preparation at 0° C. for 60 minutes. The 50% inhibitory concentration (IC50) was measured by the concentration-response curve. In addition, the inhibitory constant (Ki) of the test compound was calculated by dissociation constant (Kd) and concentration (L) of tritium-labelled diazepam.

Assay [2] relates to Pentylenetetrazole-Induced Convulsion. Nature of the assay: Potentiation of Pentylenetetrazole-Induced Convulsion (inverse agonist activity). The assay is classed as in vivo. The following applies: Mus musculus, iv; male mice; test compound i.v.; pentylenetetrazole 90 mg/kg s.c.; 2-hour observation; probit method; read-out: ED50 (dose required to produce tonic convulsion and death in 50% of the animals). As for the experimental part: Inverse agonist activity was evaluated in this Experiment. Pentylenetetrazole was subscutaneously administered male mice (a group of 8-16 male mice was employed in each test) at a dose of 90 mg/kg immediately after intravenous injection of the test compound. The dose (ED50) required to produce tonic convulsion and death in 50% of the animals during subsequent 2-hour observation period was calculated by the probit method.

The test system of the next assay is human memory. The following applies: M. Sarter et al., TINS 11, 13 (1988); cited from earlier work.

As to `c1ccc(-c2nc3cnc4c(c3[nH]2)CCCC4)cc1` [Ia-1, 2-Phenyl-6,7,8,9-tetrahydro-1H-imidazo[4,5-c]quinoline], the ED50 – broadly, the dose at which the effect has come halfway, by size or by number of responders – in assay [1] is 7.85 mg/kg. Further, the inhibitory constant (Ki) (commonly a measure of affinity in units of concentration, obtained from inhibition or displacement) on Benzodiazepine Receptor is 13.7 nM.
On Benzodiazepine Receptor, `c1csc(-c2nc3cnc4c(c3[nH]2)CCCC4)c1` [Ia-3] had an inhibition constant Ki of 1.9 nM. In other words, the single-digit nanomolar range.
At Benzodiazepine Receptor, `c1coc(-c2nc3cnc4c(c3[nH]2)CCCC4)c1` [Ia-5] displayed an inhibition constant (Ki) of 3.46 nM.
Consider `Cc1cc(-c2nc3cnc4c(c3[nH]2)CCCC4)on1` [Ia-6], for which the ED50 in assay [1] worked out at 0.17 mg/kg. The molecule also had an inhibition constant (Ki) on Benzodiazepine Receptor of 2.19 nM.
`c1cc(-c2nc3cnc4c(c3[nH]2)CCCC4)no1` [Ia-7, 2-(3-Isoxazolyl) -6,7,8,9-tetrahydro-1H-imidazo[4,5-c]quinoline] gave an inhibitory constant (Ki) on Benzodiazepine Receptor of 1.3 nM.
As for `Cc1cc(-c2nc3cnc4c(c3[nH]2)COCC4)on1` [Ib-5], the 50% effective dose (ED50) in assay [1] was 0.8 mg/kg. On Benzodiazepine Receptor, this molecule had a Ki of 6.97 nM.
`c1cc(-c2nc3cnc4c(c3[nH]2)COCC4)no1` [Ib-7, 2-(3-Isoxazolyl)-1,6,7,9-tetrahydroimidazo[4,5-d]pyrano[4,3-b]pyridine]: the ED50 in assay [2] came out at 1.27 mg/kg. The molecule also had a Ki at Benzodiazepine Receptor of 2.09 nM.
As for `c1csc(-c2nc3cnc4c(c3[nH]2)CCCCC4)c1` [Ic-3], the affinity on Benzodiazepine Receptor, expressed as Ki, was 6.06 nM.
As for `c1cc(-c2nc3cnc4c(c3[nH]2)CCCCC4)no1` [Ic-6], affinity at Benzodiazepine Receptor was put at a Ki of 2.29 nM.
With `Cc1cc(-c2nc3cnc4c(c3[nH]2)CCCCC4)on1` [Ic-7], in assay [1], the ED50 amounted to 1.05 mg/kg. The molecule also gave a Ki at Benzodiazepine Receptor of 9.47 nM.
For the molecule `c1cc(-c2nc3cnc4c(c3[nH]2)CCC4)no1` [Id-1], in assay [2], the median effective dose (ED50) came to 0.4 mg/kg. The same molecule displayed a Ki on Benzodiazepine Receptor of 2.55 nM.
For the molecule `Cc1cc(-c2nc3cnc4c(c3[nH]2)CCC4)on1` [Id-2], the 50% effective dose (ED50) in assay [1] amounted to 0.74 mg/kg. For the same molecule, the Ki at Benzodiazepine Receptor was found to be 8.94 nM.
On to `CC1(C)Cc2ncc3nc(-c4ccon4)[nH]c3c2C1` [Ie-1, 2-(3-Isoxazolyl]-7,7-dimethyl-1H-imidazo[4,5-d]-cyclopenta[b]pyridine], for which the ED50 in assay [2] turned out to be 0.25 mg/kg. The same molecule had a Ki on Benzodiazepine Receptor of 7.2 nM.
The matching figures for `c1cc(-c2nc3cnc4c(c3[nH]2)CSCC4)no1` [If-1, 2-(3-Isoxazolyl)-1,6,7,9-tetrahydroimidazo[4,5-d]-thiopyrano[4,3-b]pyridine]: 0.96 mg/kg and 0.44 nM.
For `CCOC(=O)N1CCc2ncc3nc(-c4ccon4)[nH]c3c2C1` [Ig-1, 2-(3-isoxazolyl)-8-ethoxycarbonyl-6,7,8,9-tetrahydro-1H-imidazo[4,5-c]naphthylidine], in assay [1], the median effective dose (ED50) worked out at 3.69 mg/kg. In addition, the Ki at Benzodiazepine Receptor was 2.8 nM.
Turning to `CN1C(=O)CN=C(c2ccccc2)c2cc(Cl)ccc21` [diazepam], in the assay on human memory, the “effect on human memory” value is reported as “inhibits human memory”.
